Measured values as given in the supplement of paper PMC10307832.

Experiments:
Assay in all cases: relative viability (nuclei count vs DMSO), 5 days (fraction); higher = more cells survive
[1] = compound: C1=CC=C2C(=C1)N=C(S2)C(C#N)C3=NC(=NC=C3)NCCC4=CN=CC=C4 + C[C@]1(O)C[C@@H](c2nc(-c3ccc4ccc(-c5ccccc5)nc4c3)c3c(N)nccn32)C1 [Linsitinib] (partner 1 µM)
How it was run: (§1)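 Relative viability was taken as the ratio of nuclei in treated wells to nuclei in vehicle wells. Lung cancer cell lines in 1536-well plates received compounds by pin tool one day after seeding, either one drug alone or a fixed anchor-drug dose plus five library-drug doses (not always all listed) in √10 steps. Nuclei were counted on 4× images after 5 days of treatment, and values are medians of duplicate plates.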

[2] = compound: COc1cc(N2CCC(N3CCN(C)CC3)CC2)ccc1Nc1ncc(Cl)c(Nc2ccccc2S(=O)(=O)C(C)C)n1 [NVP-TAE684] + CC(C)C[C@H](NC(=O)[C@H](Cc1ccccc1)NC(=O)c1cnccn1)B(O)O [Bortezomib] (partner 0.002 µM)
How it was run: as §1

[3] = compound: COc1cc(N2CCC(N3CCN(C)CC3)CC2)ccc1Nc1ncc(Cl)c(Nc2ccccc2S(=O)(=O)C(C)C)n1 [NVP-TAE684] + CC1(C)CCC(c2ccc(Cl)cc2)=C(CN2CCN(c3ccc(C(=O)NS(=O)(=O)c4ccc(N[C@H](CCN5CCOCC5)CSc5ccccc5)c(S(=O)(=O)C(F)(F)F)c4)cc3)CC2)C1 [Navitoclax] (partner 0.5 µM)
How it was run: as §1

[4] = compound: COc1cc(N2CCC(N3CCN(C)CC3)CC2)ccc1Nc1ncc(Cl)c(Nc2ccccc2S(=O)(=O)C(C)C)n1 [NVP-TAE684] + CCNC(=O)c1noc(-c2cc(C(C)C)c(O)cc2O)c1-c1ccc(CN2CCOCC2)cc1 [Luminespib] (partner 0.01 µM)
How it was run: as §1

[5] = compound: COc1cc(N2CCC(N3CCN(C)CC3)CC2)ccc1Nc1ncc(Cl)c(Nc2ccccc2S(=O)(=O)C(C)C)n1 [NVP-TAE684] + COc1cc2c(Oc3ccc(NC(=O)C4(C(=O)Nc5ccc(F)cc5)CC4)cc3F)ccnc2cc1OCCCN1CCOCC1 [Foretinib] (partner 0.25 µM)
How it was run: as §1

For UMC-11, which relative viability ([1]; first compound 0.005 µM) is on record?
Its relative viability is 0.809.

What about the relative viability ([1]; first compound 0.01581 µM) of the same cell line?
Its relative viability is 0.968.

And the relative viability ([1]; first compound 0.05 µM)?
Its relative viability is 0.967.

What about the relative viability ([1]; first compound 0.1581 µM) of the same cell line?
The relative viability was 1.1.

And the relative viability ([1]; first compound 0.5 µM)?
Its relative viability is 0.917.

And the relative viability ([2]; first compound 0.2 µM)?
The relative viability was 0.642.

What about the relative viability ([2]; first compound 0.6325 µM) of the same cell line?
The relative viability was 0.97.

What about the relative viability ([2]; first compound 2 µM) of the same cell line?
The relative viability was 0.393.

And the relative viability ([3]; first compound 0.2 µM)?
The relative viability was 0.331.

And the relative viability ([3]; first compound 0.6325 µM)?
The relative viability was 0.289.

And the relative viability ([3]; first compound 2 µM)?
The relative viability was 0.162.

And the relative viability ([4]; first compound 0.2 µM)?
The relative viability was 0.879.

And the relative viability ([4]; first compound 0.6325 µM)?
The relative viability was 0.946.

And the relative viability ([4]; first compound 2 µM)?
The relative viability was 0.297.

What about the relative viability ([5]; first compound 0.2 µM) of the same cell line?
Its relative viability is 1.03.

And the relative viability ([5]; first compound 0.6325 µM)?
Its relative viability is 0.926.

What about the relative viability ([5]; first compound 2 µM) of the same cell line?
Its relative viability is 0.334.
